Measurements taken from patent publication US7498321B2, “17β-carbothioate 17α-arylcarbonyloxyloxy androstane derivative as anti-inflammatory agents” (Glaxo Group Limited, priority 2000, dated 2009).
Values joined by “and” are separate entries in the source; they are usually repeats but may differ in a detail not shown here. Identical values can stand only once.

Key:
[1] = Pharmacokinetics after intravenous (IV) and oral dosing in rats; type: in vivo, male Wistar Han rats; conditions: rat; for plasma clearance (in words): in vivo
[2] = Pharmacokinetics after intravenous administration in the anaesthetised pig; type: in vivo
Excerpt: The clearance of these two glucocortocoids is similar is this experimental pig model.

[3] = Pharmacokinetics after intra-tracheal dry powder dosing in the pig; type: in vivo; conditions: for time after dosing up to which quantifiable in plasma: anaesthetised pigs, intra-tracheal 1 mg, LLOQ 10 (Example 1) and 20 pg/mL (fluticasone propionate)
Method: Serial blood samples were taken for up to 8 h following dosing.

[4] = tested on: human hepatocytes; assay: In vitro metabolism in human hepatocytes; type: in vitro ADME; conditions: for 17-β acid metabolite production: 37° C., 10 μM
[5] = tested on: rat hepatocytes; assay: In vitro metabolism in rat hepatocytes; type: in vitro ADME
[6] = molecular target: T1, glucocorticoid receptor (GR) (Homo sapiens, UniProt P04150); assay: Functional in vitro assay of glucocorticoid agonist activity (NF-κB/ELAM-sPAP reporter in A549 cells, TNF stimulated); type: cell-based; conditions: in vitro functional glucocorticoid agonist assays; versus Example 1
T1 construct: A549 cells stably transfected with a reporter gene containing the NF-κB responsive elements from the ELAM gene promoter; endogenous in cells; host or cells: A549 human lung epithelial cells (stably transfected with reporter only)
T1 sequence (P04150 1-777): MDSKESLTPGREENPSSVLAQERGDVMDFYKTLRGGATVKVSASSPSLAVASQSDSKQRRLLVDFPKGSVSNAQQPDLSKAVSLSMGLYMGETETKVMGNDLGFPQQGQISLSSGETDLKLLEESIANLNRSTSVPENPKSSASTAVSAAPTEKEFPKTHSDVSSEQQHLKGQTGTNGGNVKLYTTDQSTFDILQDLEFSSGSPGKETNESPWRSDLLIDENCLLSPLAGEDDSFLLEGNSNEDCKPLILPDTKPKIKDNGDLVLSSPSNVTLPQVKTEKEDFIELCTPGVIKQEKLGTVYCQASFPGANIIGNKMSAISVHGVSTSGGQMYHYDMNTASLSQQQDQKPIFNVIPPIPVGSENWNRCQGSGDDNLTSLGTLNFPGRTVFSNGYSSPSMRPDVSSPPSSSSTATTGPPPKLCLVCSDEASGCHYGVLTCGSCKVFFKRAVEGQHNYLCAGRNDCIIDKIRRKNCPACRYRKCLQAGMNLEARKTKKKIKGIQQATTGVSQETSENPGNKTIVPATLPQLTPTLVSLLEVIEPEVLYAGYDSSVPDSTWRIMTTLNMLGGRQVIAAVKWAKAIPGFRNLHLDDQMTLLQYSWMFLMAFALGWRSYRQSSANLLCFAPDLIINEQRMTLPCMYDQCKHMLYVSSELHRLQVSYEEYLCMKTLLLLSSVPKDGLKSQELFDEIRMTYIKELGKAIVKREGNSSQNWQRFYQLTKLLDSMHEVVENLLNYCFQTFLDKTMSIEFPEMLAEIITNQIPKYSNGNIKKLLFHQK
Method: Pharmacological activity was assessed in a functional in vitro assay of glucocorticoid agonist activity which is generally predictive of anti-inflammatory or anti-allergic activity in vivo.
The functional assay was based on that described by K. P. Ray et al., Biochem J. (1997), 328, 707-715. A549 cells stably transfected with a reporter gene containing the NF-κB responsive elements from the ELAM gene promoter coupled to sPAP (secreted alkaline phosphatase) were treated with test compounds at appropriate doses for 1 hour at 37° C. The cells were then stimulated with tumour necrosis factor (TNF, 10 ng/ml) for 16 hours, at which time the amount of alkaline phosphatase produced is measured by a standard colourimetric assay. Dose response curves were constructed from which EC50 values were estimated.

C[C@@H]1CC2C3C[C@H](F)C4=CC(=O)C=C[C@]4(C)[C@@]3(F)[C@@H](O)C[C@]2(C)[C@@]1(OC(=O)c1ccco1)C(=O)SCF (stereo partly drawn) [Example 1, 6α, 9α-Difluoro-17α-[(2-furanylcarbonyl)oxy]-11β-hydroxy-16α-methyl-3-oxo-androsta-1,4-diene-17β-carbothioic acid S-fluoromethyl ester]
plasma clearance (in words) [1]: approaching hepatic blood flow
oral bioavailability ([1]; oral 0.1 mg/kg vs IV 0.1 mg/kg, 0.1 mg/kg): < 1% and 0.9%
clearance compared with fluticasone propionate (in words) ([2]; IV 0.1 mg/kg): similar
pharmacokinetic parameters compared with fluticasone propionate (in words) ([2]; IV mixture of the two compounds at 0.1 mg/kg): the same
AUC (0-inf) ([3]; Pig 1, intra-tracheal 1 mg dry powder blend in lactose): 254 pg·h/mL
AUC (0-inf) ([3]; Pig 2, intra-tracheal 1 mg dry powder blend in lactose): 221 pg·h/mL
time after dosing up to which quantifiable in plasma [3]: up to 2 hours
manner of metabolism (in words) ([4]; human hepatocytes): metabolised in an identical manner to fluticasone propionate
17-β acid metabolite production ([4]; subject 1, 0.2 million cells/mL): 48.9 pmol/h
17-β acid metabolite production ([4]; subject 1, 0.7 million cells/mL): 73.3 pmol/h
17-β acid metabolite production ([4]; subject 2, 0.2 million cells/mL): 118 pmol/h
17-β acid metabolite production ([4]; subject 2, 0.7 million cells/mL): 903 pmol/h
17-β acid metabolite production ([4]; subject 3, 0.7 million cells/mL): 580 pmol/h
manner of metabolism (in words) [5]: metabolised in an identical manner to fluticasone propionate

CC1CC2C3CC(F)C4=CC(=O)C=CC4(C)C3(F)C(O)CC2(C)C1(OC(=O)c1ccsc1)C(=O)SCF (stereo not drawn) [Example 4, 6α,9α-Difluoro-11β-hydroxy-16α-methyl-3-oxo-17α-[(3-thienylcarbonyl)oxy]-androsta-1,4-diene-17β-carbothioic acid S-fluoromethyl ester]
plasma clearance (in words) [1]: approaching hepatic blood flow

Cc1ccoc1C(=O)OC1(C(=O)SCF)C(C)CC2C3CC(F)C4=CC(=O)C=CC4(C)C3(F)C(O)CC21C (stereo not drawn) [Example 19, 6α,9α-Difluoro-11β-hydroxy-16α-methyl-17α-[(3-methylfuran-2-carbonyl)oxy]-3-oxo-androsta-1,4-diene-17β-carbothioic acid S-fluoromethyl ester]
plasma clearance (in words) [1]: approaching hepatic blood flow

Cc1cc(C(=O)OC2(C(=O)SCF)C(C)CC3C4CC(F)C5=CC(=O)C=CC5(C)C4(F)C(O)CC32C)no1 (stereo not drawn) [Example 24, 6α,9α-Difluoro-11β-hydroxy-16α-methyl-17α-[(5-methylisoxazole-3-carbonyl)oxy]-3-oxo-androsta-1,4-diene-17β-carbothioic acid S-fluoromethyl ester]
plasma clearance (in words) [1]: approaching hepatic blood flow

Cc1cc(C(=O)OC2(C(=O)SCF)C(C)CC3C4CC(F)C5=CC(=O)C=CC5(C)C4(F)C(O)CC32C)on1 (stereo not drawn) [Example 25, 6α,9α-Difluoro-11β-hydroxy-16α-methyl-17α-[(3-methylisoxazole-5-carbonyl)oxy]-3-oxo-androsta-1,4-diene-17β-carbothioic acid S-fluoromethyl ester]
plasma clearance (in words) [1]: approaching hepatic blood flow

CC1CC2C3CC(F)C4=CC(=O)C=CC4(C)C3(F)C(O)CC2(C)C1(OC(=O)c1ccon1)C(=O)SCF (stereo not drawn) [Example 28, 6α,9α-Difluoro-11β-hydroxy-17α-[(isoxazole-3-carbonyl)oxy]-16α-methyl-3-oxo-androsta-1,4-diene-17β-carbothioic acid S-fluoromethyl ester]
plasma clearance (in words) [1]: approaching hepatic blood flow

CCC(=O)O[C@]1(C(=O)SCF)[C@H](C)C[C@H]2[C@@H]3C[C@H](F)C4=CC(=O)C=C[C@]4(C)[C@@]3(F)[C@@H](O)C[C@@]21C [Fluticasone propionate, 6α, 9α-Difluoro-17α-(1-oxopropoxy)-11β-hydroxy-16α-methyl-3-oxo-androsta-1,4-diene-17β-carbothioic acid S-fluoromethyl ester, reference compound]
time after dosing up to which quantifiable in plasma [3]: up to 8 hours

C[C@@H]1C[C@H]2[C@@H]3C[C@H](F)C4=CC(=O)C=C[C@]4(C)[C@@]3(F)[C@@H](O)C[C@]2(C)[C@@]1(OC(=O)c1ccco1)C(=O)O [Metabolite (X)]
fold less active than the parent compound [6]: > 1000 fold
